The test system of the first test is LNCaP cell lines. Nature of the test: WST-1 Cell Proliferation and Viability Assay. Particulars: Homo sapiens; LNCaP cells, compound incubation 18-72 hours. Format: cell-based. The procedure, abridged: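 LNCaP cells (5000/well, phenol-red-free RPMI-1640 with 10% FCS) were plated overnight, then exposed to compounds in 0.1% DMSO final for 18-72 hours at 37 °C. Viability was read by WST-1 conversion to formazan after 3 h further incubation, measured at A490-A650.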
(Tetrazolium assays rely on reduction of a dye to a coloured formazan, in cell work by metabolically active cells.)
In general, EC50 refers to the midpoint of the concentration-response curve. In turn, `COC(=O)CCc1ccc(OCCc2ccccc2)c(NC(=O)c2cc(Cl)ccc2O)c1` [Compound 326] registered an EC50 of 6.2 µM.

For `O=CNc1cccc(C(=O)Nc2cc(C(F)(F)F)ccc2Oc2ccc(Cl)c3ccccc23)c1O` [Compound 269], it took 8 µM to reach a half-maximal effect (EC50). Take `COc1ccccc1CCOc1cccc(NC(=O)c2cc(Cl)cc([N+](=O)[O-])c2O)c1` [Compound 336]: the EC50 turned out to be 28 µM. Still for that read-out and setting: for `O=C(NCc1cccc(Oc2ccccc2)c1)c1cc(Cl)ccc1O` [Compound 67] the value was 50 µM; for `CCN(CC)CCN(CC)c1ccc(NC(=O)c2cc(Cl)ccc2O)c(OCCc2cccc(C(F)(F)F)c2)c1` [Compound 361], 8 µM. Same read-out and setting: with `Cc1ccc(NC(=O)c2cc(Cl)ccc2O)cc1` [Compound 114] the figure was 10 µM. `COC(=O)CCc1ccccc1CCOc1ccc(Cl)cc1NC(=O)c1cc(Cl)ccc1O` [Compound 303] gave a half-maximal effective concentration (EC50) of 3.3 µM. `COc1ccccc1CCOc1cccc(NC(=O)c2cccc(C(C)C)c2O)c1` [Compound 203] came in with an EC50 of 33 µM. Same read-out and setting: for `O=C(Nc1cc(Cl)cc(Cl)c1OCCc1cccc(C(F)(F)F)c1)c1cc(Cl)ccc1O` [Compound 242] the value was 2 µM. For `Cc1cc(C)c(CCOc2cccc(NC(=O)c3cc(Cl)ccc3O)c2)c(C)c1` [Compound 62], the EC50 worked out at 4 µM. Still for that read-out and setting: with `COc1ccccc1CCOc1cccc(NC(=O)c2cc(-c3cc4ccccc4o3)ccc2O)c1` [Compound 339] the figure was 8 µM; with `O=C(Nc1cccc(C(F)(F)F)c1)c1cc(Cl)ccc1O` [Compound 56], 1 µM. `CN(CCc1ccccn1)c1ccc(NC(=O)c2cc(Cl)ccc2O)c(OCCc2cccc(C(F)(F)F)c2)c1` [Compound 376] returned a 50% effective concentration (EC50) of 7.3 µM.

As for `O=C(Nc1cc(C(F)(F)F)ccc1NCCc1ccccc1Cl)c1cc(Cl)ccc1O` [Compound 276], the midpoint of the response, the EC50, lay at 4 µM.

Turning to `COc1ccccc1CCOc1cccc(NC(=O)c2cc(-c3cccc(Cl)c3)ccc2O)c1` [Compound 349], the EC50 was 10 µM. The same measure, in the same setting: for `O=CNc1cccc(C(=O)Nc2cccc(OCCc3ccccc3)c2)c1O` [Compound 5] the value was 5 µM; for `Cc1ccccc1CCOc1cccc(NC(=O)c2cc(Cl)ccc2O)c1` [Compound 55], 15 µM; for `O=C(Nc1cc(C(F)(F)F)ccc1OCCc1ccc(Cl)cc1)c1cc(Cl)ccc1O` [Compound 129], 0.8 µM. On the same count and under the same terms, for `O=C(Nc1cc(C(F)(F)F)ccc1OCCc1ccc(Cl)cc1Cl)c1cc(Cl)ccc1O` [Compound 253] the value was 1 µM; for `COc1ccccc1CCOc1cccc(NC(=O)c2cc(Cl)c(F)cc2O)c1` [Compound 355], 15 µM. Molecule `O=C(NCc1cccc(OCCc2ccccc2)c1)c1cc(Cl)ccc1O` [Compound 66] came in with a half-maximal effective concentration (EC50) of 50 µM.

Turning to `Cc1cc(C)c(CCOc2ccc(Cl)cc2NC(=O)c2cc(Cl)ccc2O)c(C)c1` [Compound 81], the concentration for a half-maximal effect (EC50) was found to be 1 µM. With `Cc1cccc(-c2cccc(CNC(=O)c3cc(Cl)ccc3O)c2)c1` [Compound 145], a half-maximal effect (EC50) was put at 17 µM. Take `Cc1ccc(CCOc2cccc(NC(=O)c3cc(Cl)ccc3O)c2)cc1` [Compound 59]: the midpoint of the response, the EC50, lay at 10 µM. Regarding `CN1CCN(c2ccc(NC(=O)c3cc(Cl)ccc3O)c(OCCc3cccc(C(F)(F)F)c3)c2)CC1` [Compound 358], the concentration for a half-maximal effect (EC50) is 16.3 µM. The molecule `O=C(Nc1cc(Cl)ccc1OCc1cccc(C(F)(F)F)c1)c1cc(Cl)ccc1O` [Compound 329] showed an EC50 of 2.2 µM.

In turn, `Cc1cccc(OCCc2ccccc2C(F)(F)F)c1NC(=O)c1cc(Cl)ccc1O` [Compound 173] had an EC50 of 11 µM.

On to `Cc1cccc(C(=O)Nc2cccc(OCCc3ccccc3)c2)c1O` [Compound 210], for which the midpoint of the response, the EC50, lay at 22 µM. The molecule `CC(C)OCCOc1ccc(C(F)(F)F)cc1NC(=O)c1cc(Cl)ccc1O` [Compound 296] gave an EC50 of 0.8 µM. Turning to `O=C(Nc1cccc(Cl)c1OCCc1ccccc1C(F)(F)F)c1cc(Cl)ccc1O` [Compound 137], the half-maximal effective concentration (EC50) worked out at 5 µM. Still for that read-out and setting: for `Cc1ccc(NC(=O)c2cc(Cl)ccc2O)c(OCCc2ccccc2)c1` [Compound 150] the value was 6 µM. `O=CNc1cccc(C(=O)Nc2cc(C(F)(F)F)ccc2OCCc2cccc(C(F)(F)F)c2)c1O` [Compound 261]: the midpoint of the response, the EC50, lay at 6 µM. Same read-out and setting: with `CC(C)C(COc1ccc(C(F)(F)F)cc1NC(=O)c1cc(Cl)ccc1O)c1ccc(Cl)cc1` (centres unmarked) [Compound 283] the figure was 0.9 µM.

For `COc1ccccc1CCOc1cccc(NC(=O)c2ccc(C)cc2O)c1` [Compound 208], the EC50 was found to be 21 µM.

`O=C(NCCc1cccc(OCCc2ccccc2)c1)c1cc(Cl)ccc1O` [Compound 143] displayed an EC50 of 14 µM. The same measure, in the same setting: with `Cc1ccc(OCCc2cccc(C(F)(F)F)c2)c(NC(=O)c2cc(Cl)ccc2O)c1` [Compound 157] the figure was 2 µM; with `COC(=O)[C@H]1CCCN1c1ccc(NC(=O)c2cc(Cl)ccc2O)c(OCCc2cccc(C(F)(F)F)c2)c1` [Compound 359], 3.1 µM; with `COc1ccc(NC(=O)c2cc(Cl)ccc2O)cc1OCCc1ccccc1` [Compound 12], 13 µM. The molecule `O=C(Nc1cccc(OCCc2ccccc2)c1)c1ccc(F)cc1O` [Compound 191] had a half-maximal effective concentration (EC50) of 15 µM. Regarding `O=C(Nc1cc(C(F)(F)F)ccc1SCCc1ccccc1)c1cc(Cl)ccc1O` [Compound 259], the concentration for a half-maximal effect (EC50) was found to be 1 µM.

As to `Cc1cc(Cl)c(OCCc2ccccc2C(F)(F)F)c(NC(=O)c2cc(Cl)ccc2O)c1C` [Compound 240], a half-maximal effect (EC50) was put at 10 µM. On the same count and under the same terms, for `Cc1oc(-c2ccccc2)nc1CCOc1ccc(Cl)cc1NC(=O)c1cc(Cl)ccc1O` [Compound 132] the value was 5 µM; for `Cc1cc(C)c(OCCc2ccccc2C(F)(F)F)c(NC(=O)c2cc(Cl)ccc2O)c1` [Compound 131], 2 µM. On the same count and under the same terms, for `CC(C)(C)c1cc(C(=O)NCc2cccc(-c3ccccc3)c2)c(O)c(C(C)(C)C)c1` [Compound 219] the value was 32 µM.

With `O=C(Nc1cccc(Cl)c1)c1cc(Cl)ccc1O` [Compound 94], the response was half-maximal at 3 µM (EC50). `O=CNc1cc(Cl)cc(C(=O)Nc2cccc(OCCc3ccccc3)c2)c1O` [Compound 124] gave a concentration giving a half-maximal response (EC50) of 8 µM.

For `COc1ccccc1CCOc1cccc(NC(=O)c2cc(-c3ccc(Cl)cc3)ccc2O)c1` [Compound 351], it took 11 µM to reach a half-maximal effect (EC50). In the case of `COc1ccccc1CCOc1cccc(NC(=O)c2cc(-c3ccc4c(c3)OCO4)ccc2O)c1` [Compound 348], the EC50 was 17 µM.

As for `O=C(Nc1cc(C(F)(F)F)ccc1OCCc1ccc(Cl)s1)c1cc(Cl)ccc1O` [Compound 254], a half-maximal response (EC50) required 1 µM. On the same count and under the same terms, with `Cc1ccc(OCCc2cccc(C(F)(F)F)c2)cc1NC(=O)c1cc(Cl)ccc1O` [Compound 333] the figure was 2.6 µM. Still for that read-out and setting: with `CC1CN(c2ccc(NC(=O)c3cc(Cl)ccc3O)c(OCCc3ccccc3C(F)(F)F)c2)CC(C)O1` (centres unmarked) [Compound 241] the figure was 3 µM; with `COc1ccc(CCOc2cccc(NC(=O)c3cc(Cl)ccc3O)c2)cc1OC` [Compound 34], 10 µM.

For the molecule `Cc1ccc(COc2ccc(C(F)(F)F)cc2NC(=O)c2cc(Cl)ccc2O)cc1` [Compound 332], the midpoint of the response, the EC50, lay at 0.74 µM.

For the molecule `Cc1ccc(C(=O)Nc2cccc(OCCc3ccccc3)c2)c(O)c1` [Compound 211], the EC50 came to 22 µM. The molecule `O=C(Nc1cc(C(F)(F)F)ccc1N1CCN(c2ccccc2)CC1)c1cc(Cl)ccc1O` [Compound 272] came in with a concentration giving a half-maximal response (EC50) of 0.9 µM. Consider `O=C(Nc1cc(C(F)(F)F)ccc1OCCCc1ccccc1)c1cc(Cl)ccc1O` [Compound 141], for which the half-maximal effective concentration (EC50) was found to be 1 µM.

In turn, `O=C(Nc1cc(Cl)ccc1OCCc1ccccc1F)c1cc(Cl)ccc1O` [Compound 107] displayed an EC50 of 2 µM. On the same count and under the same terms, with `Cc1cc(OCCc2ccc(CC(F)(F)F)cc2)c(NC(=O)c2cc(Cl)ccc2O)cc1Cl` [Compound 164] the figure was 1 µM; with `O=C(Nc1ccccc1OCCc1ccccc1)c1cc(Cl)ccc1O` [Compound 80], 4 µM.

Molecule `O=C(Nc1cc(OCCc2ccccc2)ccc1Cl)c1cc(Cl)ccc1O` [Compound 27] yielded a concentration for a half-maximal effect (EC50) of 4 µM. Same read-out and setting: with `O=C(Nc1cc(C(F)(F)F)ccc1OCCc1cccc(C(F)(F)F)c1)c1cc(Cl)ccc1O` [Compound 155] the figure was 0.4 µM. On the same count and under the same terms, for `COc1ccccc1CCOc1cccc(NC(=O)c2cc(-c3ccccc3Cl)ccc2O)c1` [Compound 350] the value was 10 µM; for `O=C(Nc1cccc(OC2CCCC[C@H]2c2ccccc2)c1)c1cc(Cl)ccc1O` (some centres unmarked) [Compound 17], 2 µM. For the molecule `O=C(Nc1cccc(CCOc2ccccc2)c1)c1cc(Cl)ccc1O` [Compound 18], the midpoint of the response, the EC50, lay at 10 µM. `Cc1cc(C)cc(COc2cccc(NC(=O)c3cc(Cl)ccc3O)c2)c1` [Compound 105] had an EC50 of 8 µM.

Staying with this test, now noted: Homo sapiens; LNCaP cells; flagged "Estimated": based on actual data at different concentrations.
Regarding `O=C(NCc1cccc(C(F)(F)F)c1)c1cc(Cl)ccc1O` [Compound 121], the EC50 was 30 µM.

With `COc1ccccc1CCOc1cccc(NC(=O)c2cccc(F)c2O)c1` [Compound 353], the EC50 was 25 µM. The same measure, in the same setting: for `O=C(Nc1cccc(OCc2ccc3c(c2)OCO3)c1)c1cc(Cl)ccc1O` [Compound 86] the value was 30 µM; for `CC(=O)Nc1cc(F)c(F)cc1C(=O)Nc1cccc(OCCc2ccccc2)c1` [Compound 7], 30 µM; for `O=C(Nc1cc(C(F)(F)F)ccc1OCC(F)(F)F)c1cc(Cl)ccc1O` [Compound 278], 2 µM. `Cc1cc(C)cc(CNC(=O)c2cc(Cl)ccc2O)c1` [Compound 323]: the concentration for a half-maximal effect (EC50) is 30 µM.

With `O=C(c1ccccc1)c1ccc(NC(=O)c2cc(Cl)ccc2O)cc1` [Compound 25], the concentration for a half-maximal effect (EC50) was 20 µM. Consider `O=C(NCCc1ccccc1OCc1ccccc1)c1cc(Cl)ccc1O` [Compound 119], for which the concentration giving a half-maximal response (EC50) was 20 µM. On the same count and under the same terms, with `COc1ccccc1CCOc1cccc(N(C)C(=O)c2cc(Cl)ccc2O)c1` [Compound 228] the figure was 30 µM.

The record behind these values is US7547804B2, “Compounds, compositions, and methods employing same” (Myriad Genetics, Inc., priority 2002, dated 2009).
